Measurements from patent US9302999B2, “Substituted triazoles as herbicides” (E. I. DU PONT DE NEMOURS AND COMPANY, priority 2012, dated 2016).

What was measured:
Format in all cases: in vivo
[1] = system: galium (catchweed bedstraw, Galium aparine); assay: Test C pre-/postemergence: galium
Procedure, shortened: (§1)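 Preemergence on seeds in loam/sand, postemergence on 2–18 cm (1–4-leaf) plants in peat-based medium; compounds in non-phytotoxic solvent with surfactant. After 13–15 days in greenhouse, visual rating versus controls, 0 (no effect) to 100 (complete control).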

[2] = system: canarygrass (Phalaris minor); assay: Test C postemergence: canarygrass
Text: (§2) At the same time, plants selected from these crop and weed species and also barley (winter barley, Hordeum vulgare), canarygrass (Phalaris minor), chickweed (common chickweed, Stellaria media) windgrass (Apera spica-venti) and deadnettle (henbit deadnettle, Lamium amplexicaule) were planted in pots containing Redi-Earth® planting medium (Scotts Company, 14111 Scottslawn Road, Marysville, Ohio 43041) comprising spaghnum peat moss, vermiculite, wetting agent and starter nutrients and treated with postemergence applications of test chemicals formulated in the same manner. Plants ranged in height from 2 to 18 cm (1- to 4-leaf stage) for postemergence treatments.
(§3) Treated plants and controls were maintained in a greenhouse for 13 to 15 days, after which time all species were compared to controls and visually evaluated. Plant response ratings, summarized in Table C, are based on a scale of 0 to 100 where 0 is no effect and 100 is complete control. A dash (-) response means no test result.

[3] = system: morningglory (Ipomoea coccinea); assay: Test C pre-/postemergence: morningglory
Text: (§4) Seeds of plant species selected from blackgrass (Alopecurus myosuroides), bromegrass, downy (downy bromegrass, Bromus tectorum), foxtail, green (green foxtail, Setaria viridis), ryegrass, Italian (Italian ryegrass, Lolium multiflorum), winter wheat (Triticum aestivum), wild oat (Avena fatua), galium (catchweed bedstraw, Galium aparine), bermudagrass (Cynodon dactylon), surinam grass (Brachiaria decumbens), cocklebur (common cocklebur, Xanthium strumarium), corn (Zea mays), large crabgrass (Digitaria sanguinalis), woolly cupgrass (Eriochloa villosa), foxtail, giant (giant foxtail, Setaria faberii), goosegrass (Eleusine indica), johnsongrass (Sorghum halepense), kochia (Kochia scoparia), lambsquarters (Chenopodium album), morningglory (Ipomoea coccinea), nightshade (eastern black nightshade, Solanum ptycanthum), nutsedge, yellow (yellow nutsedge, Cyperus esculentus), pigweed (Amaranthus retroflexus), ragweed (common ragweed, Ambrosia elation), soybean (Glycine max), common (oilseed) sunflower (Helianthus annuus), Russian thistle (Salsola kali) and velvetleaf (Abutilon theophrasti) were planted into a blend of loam soil and sand and treated preemergence with test chemicals formulated in a non-phytotoxic solvent mixture which included a surfactant.
as §2, §3

[4] = system: nightshade (eastern black nightshade, Solanum ptycanthum); assay: Test C pre-/postemergence: nightshade; conditions: Preemergence
Text: as §4, §2, §3

[5] = system: lambsquarters (Chenopodium album); assay: Test C pre-/postemergence: lambsquarters
Procedure, shortened: as §1

[6] = system: winter wheat (Triticum aestivum); assay: Test C pre-/postemergence: winter wheat
Text: as §4, §2, §3

[7] = system: velvetleaf (Abutilon theophrasti); assay: Test C pre-/postemergence: velvetleaf
Procedure, shortened: as §1

[8] = system: corn (Zea mays); assay: Test C pre-/postemergence: corn
Procedure, shortened: as §1

[9] = system: cocklebur (common cocklebur, Xanthium strumarium); assay: Test C pre-/postemergence: cocklebur
Text: as §4, §2, §3

[10] = system: common (oilseed) sunflower (Helianthus annuus); assay: Test C pre-/postemergence: sunflower; conditions: Preemergence
Text: as §4, §2, §3

[11] = Postemergence, 31 g ai/ha, scale 0 to 100 (0 no effect, 100 complete control)
[12] = Postemergence, 62 g ai/ha, scale 0 to 100 (0 no effect, 100 complete control)
[13] = Postemergence, 125 g ai/ha, scale 0 to 100, 0 no effect, 100 complete control
[14] = Postemergence, 250 g ai/ha, scale 0 to 100
[15] = Preemergence, 31 g ai/ha, scale of 0 to 100, 0 is no effect, 100 is complete control
[16] = Preemergence, 62 g ai/ha, scale of 0 to 100, 0 is no effect, 100 is complete control
[17] = Preemergence, 125 g ai/ha, scale 0 to 100, 0 no effect, 100 complete control
[18] = Preemergence, 250 g ai/ha, scale 0 to 100, 0 no effect, 100 complete control
[19] = 125 g ai/ha, scale 0 to 100, 0 no effect, 100 complete control
[20] = 31 g ai/ha, scale of 0 to 100, 0 is no effect, 100 is complete control
[21] = 62 g ai/ha, scale of 0 to 100, 0 is no effect, 100 is complete control
[22] = 250 g ai/ha, scale 0 to 100, 0 no effect, 100 complete control

In the case of FC(F)(F)COc1nn(-c2ccc(C(F)(F)F)cc2)nc1Cc1ccnc(C(F)(F)F)c1 [Compound 14, 4-[[5-(2,2,2-trifluoroethoxy)-2-[4-(trifluoromethyl)phenyl]-2H-1,2,3-triazol-4-yl]methyl]-2-(trifluoromethyl)pyridine], the “Plant response rating, Galium” value [1, 11] is reported as 60, the “Plant response rating, Galium” value [1, 12] is reported as 80 and the “Plant response rating, Galium” value [1, 13] is reported as 80. The “Plant response rating, Galium” value [1, 14] was 80, the “Plant response rating, Galium” value [1, 15] was 20 and the “Plant response rating, Galium” value [1, 16] was 90. The “Plant response rating, Galium” value [1, 17] was 100, the “Plant response rating, Galium” value [1, 18] was 100 and the “Plant response rating, Canarygrass” value ([2]; 31 g ai/ha, scale 0 to 100 (0 no effect, 100 complete control)) was 55. For the same compound, the “Plant response rating, Canarygrass” value ([2]; 62 g ai/ha, scale 0 to 100 (0 no effect, 100 complete control)) was 80, the “Plant response rating, Canarygrass” value [2, 19] was 85 and the “Plant response rating, Canarygrass” value ([2]; 250 g ai/ha, scale 0 to 100) was 85. For the same compound, the “Plant response rating, Morningglory” value [3, 11] was 75, the “Plant response rating, Morningglory” value [3, 12] was 80 and the “Plant response rating, Morningglory” value [3, 13] was 80. The “Plant response rating, Morningglory” value [3, 14] was 95, the “Plant response rating, Morningglory” value [3, 15] was 10 and the “Plant response rating, Morningglory” value [3, 16] was 10. The “Plant response rating, Morningglory” value [3, 17] was 55, the “Plant response rating, Morningglory” value [3, 18] was 65 and the “Plant response rating, Nightshade” value [4, 20] was 55. The “Plant response rating, Nightshade” value [4, 21] was 80, the “Plant response rating, Nightshade” value [4, 19] was 95 and the “Plant response rating, Nightshade” value [4, 22] was 98. The “Plant response rating, Lambsquarters” value [5, 11] was 100, the “Plant response rating, Lambsquarters” value [5, 12] was 100 and the “Plant response rating, Lambsquarters” value [5, 13] was 100. For the same compound, the “Plant response rating, Lambsquarters” value [5, 14] was 100, the “Plant response rating, Lambsquarters” value [5, 15] was 95 and the “Plant response rating, Lambsquarters” value [5, 16] was 100. For the same compound, the “Plant response rating, Lambsquarters” value [5, 17] was 100, the “Plant response rating, Lambsquarters” value [5, 18] was 100 and the “Plant response rating, Wheat” value [6, 11] was 30. The “Plant response rating, Wheat” value [6, 12] was 35, the “Plant response rating, Wheat” value [6, 13] was 40 and the “Plant response rating, Wheat” value [6, 14] was 45. The “Plant response rating, Wheat” value [6, 15] was 0, the “Plant response rating, Wheat” value [6, 16] was 15 and the “Plant response rating, Wheat” value [6, 17] was 35. The “Plant response rating, Wheat” value [6, 18] was 45, the “Plant response rating, Velvetleaf” value [7, 11] was 75 and the “Plant response rating, Velvetleaf” value [7, 12] was 80. For the same compound, the “Plant response rating, Velvetleaf” value [7, 13] was 85, the “Plant response rating, Velvetleaf” value [7, 14] was 90 and the “Plant response rating, Velvetleaf” value [7, 15] was 10. For the same compound, the “Plant response rating, Velvetleaf” value [7, 16] was 10, the “Plant response rating, Velvetleaf” value [7, 17] was 70 and the “Plant response rating, Velvetleaf” value [7, 18] was 75. The “Plant response rating, Corn” value [8, 11] was 5, the “Plant response rating, Corn” value [8, 12] was 10 and the “Plant response rating, Corn” value [8, 13] was 15. For the same compound, the “Plant response rating, Corn” value [8, 14] was 15, the “Plant response rating, Corn” value [8, 15] was 0 and the “Plant response rating, Corn” value ([8]; Preemergence, 62 g ai/ha, scale 0 to 100, 0 no effect, 100 complete control) was 0. For the same compound, the “Plant response rating, Corn” value [8, 17] was 5, the “Plant response rating, Corn” value [8, 18] was 10 and the “Plant response rating, Cocklebur” value [9, 11] was 5. The “Plant response rating, Cocklebur” value [9, 12] was 5, the “Plant response rating, Cocklebur” value [9, 13] was 45 and the “Plant response rating, Cocklebur” value [9, 14] was 75. The “Plant response rating, Cocklebur” value [9, 15] was 0, the “Plant response rating, Cocklebur” value [9, 17] was 20 and the “Plant response rating, Cocklebur” value [9, 18] was 45. The “Plant response rating, Sunflower” value [10, 20] was 0, the “Plant response rating, Sunflower” value [10, 21] was 0 and the “Plant response rating, Sunflower” value [10, 19] was 0. The “Plant response rating, Sunflower” value [10, 22] was 15.
